From patent publication US11034839B2, “Compounds, linked with haptens, for the detection of senescent cells” (THE UNIVERSITY OF MANCHESTER, priority 2016, dated 2021)
Entries after “also recorded” stand apart in the source; their conditions may differ.

Key:
[1] = test system: senescent cells in induced Saos2-p21 cells and irradiated human diploid lung fibroblasts (DLFs); assay: Streptavidin-HRP/DAB labeling of cell spreads; format: cell-based; settings: cell spreads on cover slips, panels 6ai and 6bi
Experimental: In inventive example 3, the derivative […] was used to detect senescent cells in cell spreads using streptavidin-horse radish peroxidase (HRP)/DAB labeling.
Induced and non-induced Saos2-p21^WAF1/Cip1 […] cells as well as human lung fibroblasts (DLFs) non- and y-irradiated were grown on cover slips and collected before and after the mentioned respective treatments for induction of senescence. Cover slips were treated as follows: • a. Fixation in ice-cold ethanol or methanol for 4 min. • b. Blocking of endogenous peroxidase activity with 3% H2O2 for 10 min. • c. Quick wash in 50% (v/v) ethanol. • d. Application of LG13 dye, diluted in ethanol and filtered, on cells for 10 min. • e. Quick wash in 50% (v/v) ethanol. • f. Transfer and wash in TBS or PBS solution. • g. Incubation in streptavidin-HRP (horse radish peroxidase) conjugated (dilution 1/200), for ½ hr at room temperature. • h. Quick wash in TBS or PBS solution. • i. Staining with 3,3′-Diaminobenzidine (DAB) solution (dilution 1/300 in TBS or PBS) for 1 min at room temperature. • j. Counterstain with Nuclear Fast Red, followed by mounting with glycerol and sealing with a cover slip. • k. Microscopy observation.

lipofuscin = assay: Immunofluorescence staining / lipofuscin autofluorescence control; format: cell-based; settings: fluorescence microscopy, FIG. 9
Experimental: In inventive example 6 the derivative LG13 was used to detect lipofuscin rich cells in cell spreads from cell culture by immunofluorescence staining.
Immunofluorescence staining protocol cellsor ounted on coverslips • 1. Wash ×1 in TBS for 5 min at RT. • 2. Wash ×1 in EtOH 50% for 5 min at RT. • 3. Wash ×1 EtOH 70% for 5 min at RT. • 4. Incubate with the compound (LG13) at RT. A drop of freshly prepared compound (LG13) is placed on a clean slide with the use of a syringe that carrying a 2 mm filter (see also FIG. 1 from Evangelou & Gorgoulis, 2016). Then the cover-slip with the cells is turned down (using thin edged forceps) on the slide and attached on the dye drop in a way that the material faces down the drop on the slide (All incubations were performed in chambers (cover slips) and coplin jars (glass slides) to avoid exsiccation of the material), (see also FIG. 1 from Evangelou & Gorgoulis, 2016). • 5. The staining reaction is monitored under the light microscope until detection of the signal (average time 5-8 min). • 6. Wash ×2 in EtOH 50%. • 7. Repeat washing ×2 in fresh EtOH 50%. • 8. Wash ×2 in TBS for 30 sec and ×1 for 5 min at RT. • 9. Incubate with 0.5% Triton X/TBS for 3 min at RT. • 10. Wash ×1 in TBS for 5 min at RT. • 11. […] Observe under the fluorescence microscope

[2] = test system: senescent cells in irradiated human laryngeal tumors, palbociclib treated human melanoma cell xenografts, mouse bleomycin-injected lung, mouse lung adenomas; assay: Streptavidin-HRP/DAB labeling of tissue sections; settings: FIG. 5ai-di in comparison to FIGS. 2,3,4
Description: In the inventive example 2, the derivative LG13 was used to detect senescent cells in tissue sections using streptavidin-horse radish peroxidase (HRP)/DAB labeling.
Tissue sections were obtained from paraffin embedded, formalin fixed: (a) irradiated human laryngeal tumors, (b) palbociclib treated human melanoma cell xenografts, (c) mouse bleomycin-injected lung and (d) mouse lung adenomas. Subsequently, they were immobilized on glass microscopy slides by standard procedures and processed as follows: • a. Deparaffinization for 5 min at room temperature in xylene • b. Gradual rehydration in solutions of descending concentration of ethanol (100%, 80%, 70%, 50% v/v) and finally in TBS (Tris-buffered saline) or PBS (Phosphate-buffered saline) solution. • c. Blocking of endogenous peroxidase activity with 3% H2O2 for 10 min. • d. Gradual dehydration of biopsy material in 50% (v/v) ethanol followed by 70% (v/v) ethanol for 5 min each step. • e. Application of the new compound LG13, linked with biotin, diluted in ethanol and filtered, on biopsy material for 10 min. • f. Quick wash in 50% (v/v) ethanol. • g. Transfer and wash in TBS or PBS solution. • h. Incubation in streptavidin-HRP (horse radish peroxidase) conjugated (dilution 1/200), for ½ hr at room temperature. • i. Quick wash in TBS or PBS solution. • j. […]

[3] = test system: human diploid lung fibroblasts (DLFs) and human bronchial epithelial cells (HBEC-Cdc6 Tet-ON); assay: IHC staining versus proliferation markers (Ki67 and BrdU incorporation); format: cell-based; settings: FIG. 16
[4] = test system: HeLa cancer cells and near normal Li-Fraumeni fibroblasts; assay: False-positive studies (cell confluency, serum starvation); format: cell-based, human
Description: The in vitro models comprised seven cellular systems. […] The same cellular system was used at early passages that underwent SIPS upon y-irradiation and was compared in relation to non-irradiated counterparts. Another set of models comprised two inducible Saos2 Tet-ON osteosarcoma cell lines carrying p53 and p21^WAF1/Cip1, respectively, two well established effectors of senescence (Georgakopoulou et al., 2013; Galanos et al., 2016). Finally, the U2OS-E2F1 ER, U205-Cdt1 Tet-ON and HBECs-Cdc6 Tet-ON inducible systems that undergo SIPS due to oncogenic stress signals were also utilized (Petrakis et al., 2016; Liontos et al., 2007; Liontos et al., 2009). Parental cell lines were obtained either directly from ATCC or from collaborating laboratories that generated them. In addition, the human cancer cell line HeLa and near normal Li-Fraumeni fibroblasts (Galanos et al., 2016) were also employed as control cell lines for the specificity of staining of the SBB compounds.

## CC1(COC(=O)CCCC[C@H]2SC[C@H]3NC(=O)N[C@H]32)Nc2cccc3c(/N=N/c4ccc(/N=N/c5ccccc5)c5ccccc45)ccc(c23)N1 (stereo partly drawn) [LG13, (2-methyl-6-((E)-(4-((E)-phenyldiazenyl)naphthalen-1-yl)diazenyl)-2,3-dihydro-1H-perimidin-2-yl)methyl 5-((3aR,4R,6aS)-2-oxohexahydro-1H-thieno[3,4-d]imidazol-4-yl)pentanoate]
[1]
  colour of senescent cells after streptavidin-HRP/DAB detection: clear dark-brown color
lipofuscin
  effect of staining on lipofuscin autofluorescence: quenched; also recorded: “masks” the autofluorescence ability of lipofuscin
[2]
  recognition of senescent cells compared to histochemical staining: makes easier the recognition of senescent cells
[3]
  relationship between IHC staining and proliferation markers (Ki67 and BrdU incorporation): Inverse relationship
[4]; HeLa and Li-Fraumeni fibroblasts, FIG. 17
  staining under cell confluency: Negative
[4]; cell block, FIG. 18
  staining of serum starved HeLa cells after formalin fixing and paraffin embedding: negative
[4]; compared with SA-b-gal, FIGS. 17 and 18
  false-positive staining due to serum starvation and cell confluency: deprived of the false-positive staining disadvantages
[4]; in comparison to SA-β-gal that gave positive signal, FIG. 18
  staining after serum starvation: Negative
